Laboratory results as given in patent US20100267561A1, “HERBICIDAL PYRIDAZINONE DERIVATIVES” (priority 2007, published 2010).

Experiments:
Type in all cases: in vivo
[1] = tested on: cocklebur (Xanthium strumarium); assay: Test B pre-/postemergence plant response; conditions: Preemergence; for Cocklebur plant response rating: 8 g ai/ha
Procedure, shortened: (§1)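 Preemergence and postemergence (plants 2-18 cm, 1- to 4-leaf stage) applications used test chemicals in a non-phytotoxic solvent with surfactant. Plants were held in a greenhouse 13 to 15 days, then rated visually against controls on a 0-100 scale (0 no effect, 100 complete control).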

[2] = tested on: yellow nutsedge (Cyperus esculentus); assay: Test B pre-/postemergence plant response; conditions: Preemergence
Procedure, shortened: as §1

[3] = tested on: bermudagrass (Cynodon dactylon); assay: Test B pre-/postemergence plant response; conditions: Preemergence; for Bermudagrass plant response rating: 8 g ai/ha
Procedure, shortened: as §1

[4] = tested on: giant foxtail (Setaria faberi); assay: Test A pre-/postemergence plant response
Procedure, shortened: (§2)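 Seeds in loam soil/sand blend treated preemergence by directed soil spray, with simultaneous postemergence spray on 2–10 cm plants at one- to two-leaf stage; compounds in non-phytotoxic solvent with surfactant. Injury visually rated versus untreated controls after about 10 days in greenhouse, 0 (no effect) to 100 (complete control).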

[5] = tested on: wheat (Triticum aestivum); assay: Test A pre-/postemergence plant response
Procedure, shortened: as §2

[6] = tested on: barnyardgrass (Echinochloa crus-galli); assay: Test A pre-/postemergence plant response
Procedure, shortened: as §2

[7] = tested on: large crabgrass (Digitaria sanguinalis); assay: Test A pre-/postemergence plant response
Procedure, shortened: as §2

[8] = tested on: velvetleaf (Abutilon theophrasti); assay: Test A pre-/postemergence plant response
Procedure, shortened: as §2

[9] = tested on: pigweed (Amaranthus retroflexus); assay: Test A pre-/postemergence plant response
Procedure, shortened: as §2

[10] = tested on: morningglory (Ipomoea coccinea); assay: Test A pre-/postemergence plant response
Procedure, shortened: as §2

corn (Zea mays) = assay: Test A pre-/postemergence plant response
Procedure, shortened: as §2

[11] = 16 g ai/ha, scale 0 to 100 (0 no effect, 100 complete control)
[12] = 31 g ai/ha, 0 to 100 scale, 0 no effect, 100 complete control
[13] = scale 0 to 100 (0 no effect, 100 complete control)
[14] = Postemergence, 125 g ai/ha, 0 to 100 scale, 0 no effect, 100 complete control
[15] = Postemergence, 500 g ai/ha, 0 to 100 scale, 0 no effect, 100 complete control
[16] = Preemergence, 125 g ai/ha, 0 to 100 scale (0 no effect, 100 complete control)
[17] = Preemergence, 500 g ai/ha, 0 to 100 scale (0 no effect, 100 complete control)
[18] = 31 g ai/ha, scale 0 to 100 (0 no effect, 100 complete control)
[19] = Postemergence, 31 g ai/ha, 0 to 100 scale (0 no effect, 100 complete control)
[20] = Preemergence, 31 g ai/ha, 0 to 100 scale, 0 is no effect, 100 is complete control
[21] = 62 g ai/ha, 0 to 100 scale, 0 no effect, 100 complete control

Cn1ncc(O)c(-c2nn(-c3ccc(Cl)cc3)cc2Br)c1=O [Compound 31]
90: Plant response rating, Foxtail, Giant [4, 14] | Plant response rating, Foxtail, Giant [4, 15] | Plant response rating, Wheat [5, 17] | Plant response rating, Barnyardgrass [6, 15] | Plant response rating, Crabgrass, Large [7, 15]
10: Plant response rating, Corn (corn (Zea mays); [14])
60: Plant response rating, Wheat [5, 15] | Plant response rating, Wheat [5, 16] | Plant response rating, Barnyardgrass [6, 14] | Plant response rating, Crabgrass, Large [7, 14]
40: Plant response rating, Wheat [5, 14]
95: Bermudagrass plant response rating [3, 13]
50: Plant response rating, Corn (corn (Zea mays); [16])
70: Plant response rating, Corn (corn (Zea mays); [15]) | Plant response rating, Corn (corn (Zea mays); [17])
20: Plant response rating, Pigweed [9, 17]
0: Plant response rating, Cocklebur [1, 11] | Plant response rating, Cocklebur [1, 12] | Plant response rating, Cocklebur ([1]; 62 g ai/ha, scale 0 to 100) | Cocklebur plant response rating ([1]; scale 0 to 100) | Plant response rating, Nutsedge, Yellow [2, 11] | Plant response rating, Nutsedge, Yellow [2, 12] | Plant response rating, Nutsedge, Yellow ([2]; 62 g ai/ha, scale 0 to 100) | Nutsedge, Yellow plant response rating ([2]; 8 g ai/ha, scale 0 to 100) | Plant response rating, Velvetleaf [8, 14] | Plant response rating, Velvetleaf [8, 15] | Plant response rating, Velvetleaf [8, 16] | Plant response rating, Velvetleaf [8, 17] | Plant response rating, Pigweed [9, 14] | Plant response rating, Pigweed [9, 15] | Plant response rating, Pigweed [9, 16] | Plant response rating, Morningglory [10, 14] | Plant response rating, Morningglory [10, 15] | Plant response rating, Morningglory [10, 16] | Plant response rating, Morningglory [10, 17]
100: Plant response rating, Bermudagrass [3, 11] | Plant response rating, Bermudagrass [3, 12] | Plant response rating, Bermudagrass ([3]; 62 g ai/ha, scale 0 to 100) | Plant response rating, Foxtail, Giant [4, 16] | Plant response rating, Foxtail, Giant [4, 17] | Plant response rating, Barnyardgrass [6, 16] | Plant response rating, Barnyardgrass [6, 17] | Plant response rating, Crabgrass, Large [7, 16] | Plant response rating, Crabgrass, Large [7, 17]

Cc1cc(-c2ccc(Cl)cc2)nn1-c1c(OS(=O)(=O)c2ccccc2[N+](=O)[O-])cnn(C)c1=O [Compound 51]
20: Plant response rating, Foxtail, Giant [4, 19] | Plant response rating, Barnyardgrass [6, 19] | Plant response rating, Crabgrass, Large [7, 19] | Plant response rating, Corn (corn (Zea mays); [19]) | Plant response rating, Corn (corn (Zea mays); [20])
100: Plant response rating, Bermudagrass [3, 11] | Plant response rating, Bermudagrass [3, 12] | Plant response rating, Bermudagrass ([3]; 62 g ai/ha, scale 0 to 100) | Plant response rating, Foxtail, Giant [4, 16] | Plant response rating, Barnyardgrass [6, 16] | Plant response rating, Crabgrass, Large [7, 16]
0: Plant response rating, Cocklebur [1, 11] | Plant response rating, Cocklebur [1, 12] | Plant response rating, Cocklebur ([1]; 62 g ai/ha, scale 0 to 100) | Cocklebur plant response rating ([1]; scale 0 to 100) | Plant response rating, Nutsedge, Yellow [2, 18] | Plant response rating, Nutsedge, Yellow ([2]; 62 g ai/ha, scale 0 to 100) | Nutsedge, Yellow plant response rating ([2]; 8 g ai/ha, scale 0 to 100) | Nutsedge, Yellow plant response rating ([2]; 16 g ai/ha, scale 0 to 100) | Plant response rating, Wheat [5, 19] | Plant response rating, Velvetleaf [8, 19] | Plant response rating, Velvetleaf [8, 14] | Plant response rating, Velvetleaf [8, 20] | Plant response rating, Velvetleaf [8, 16] | Plant response rating, Pigweed [9, 19] | Plant response rating, Pigweed [9, 14] | Plant response rating, Pigweed [9, 16] | Plant response rating, Morningglory [10, 19] | Plant response rating, Morningglory [10, 14] | Plant response rating, Morningglory [10, 20] | Plant response rating, Morningglory [10, 16]
80: Plant response rating, Wheat [5, 16] | Plant response rating, Barnyardgrass [6, 14] | Plant response rating, Barnyardgrass [6, 20] | Plant response rating, Corn (corn (Zea mays); [16])
60: Bermudagrass plant response rating [3, 13] | Plant response rating, Corn (corn (Zea mays); [14])
70: Plant response rating, Foxtail, Giant [4, 14] | Plant response rating, Crabgrass, Large [7, 14]
90: Plant response rating, Foxtail, Giant [4, 20] | Plant response rating, Crabgrass, Large [7, 20]
40: Plant response rating, Wheat [5, 14] | Plant response rating, Wheat [5, 20]

C#CCOC(=O)Oc1cnn(C)c(=O)c1-n1nc(-c2ccc(Cl)cc2)cc1C [Compound 58]
70: Plant response rating, Wheat [5, 16] | Plant response rating, Crabgrass, Large [7, 14]
0: Plant response rating, Cocklebur [1, 11] | Plant response rating, Cocklebur [1, 18] | Plant response rating, Cocklebur [1, 21] | Cocklebur plant response rating ([1]; scale 0 to 100) | Plant response rating, Nutsedge, Yellow [2, 18] | Plant response rating, Nutsedge, Yellow [2, 21] | Nutsedge, Yellow plant response rating ([2]; 8 g ai/ha, scale 0 to 100) | Nutsedge, Yellow plant response rating ([2]; 16 g ai/ha, scale 0 to 100) | Plant response rating, Wheat [5, 19] | Plant response rating, Barnyardgrass [6, 19] | Plant response rating, Crabgrass, Large [7, 19] | Plant response rating, Velvetleaf [8, 19] | Plant response rating, Velvetleaf [8, 14] | Plant response rating, Velvetleaf [8, 20] | Plant response rating, Velvetleaf [8, 16] | Plant response rating, Pigweed [9, 19] | Plant response rating, Pigweed [9, 14] | Plant response rating, Pigweed [9, 20] | Plant response rating, Pigweed [9, 16] | Plant response rating, Morningglory [10, 19] | Plant response rating, Morningglory [10, 14] | Plant response rating, Morningglory [10, 20] | Plant response rating, Morningglory [10, 16] | Plant response rating, Corn (corn (Zea mays); [19]) | Plant response rating, Corn (corn (Zea mays); [20])
60: Plant response rating, Wheat [5, 14] | Plant response rating, Crabgrass, Large [7, 20] | Plant response rating, Corn (corn (Zea mays); [14])
100: Bermudagrass plant response rating [3, 13] | Plant response rating, Bermudagrass [3, 11] | Plant response rating, Bermudagrass [3, 18] | Plant response rating, Bermudagrass [3, 21] | Plant response rating, Foxtail, Giant [4, 16] | Plant response rating, Barnyardgrass [6, 16]
20: Plant response rating, Foxtail, Giant [4, 19] | Plant response rating, Wheat [5, 20] | Plant response rating, Corn (corn (Zea mays); [16])
80: Plant response rating, Barnyardgrass [6, 14]
50: Plant response rating, Barnyardgrass [6, 20]
90: Plant response rating, Foxtail, Giant [4, 14] | Plant response rating, Foxtail, Giant [4, 20] | Plant response rating, Crabgrass, Large [7, 16]
